Laboratory results: US11840686B2, “Modulation of prekallikrein (PKK) expression” (Ionis Pharmaceuticals, Inc., priority 2013, dated 2023)
Strand notation (5' to 3'): a small letter for the sugar, then the base; units joined by * are phosphorothioate-linked, units joined directly phosphodiester-linked; [ ] holds rarer units or linkages, { } end groups; capitals alone tell only the bases. e = 2'-O-(2-methoxyethyl) (MOE); [5mC] = 5-methylcytosine; d = 2'-deoxy (DNA)

System: human PKK mRNA
Assay: Antisense inhibition of human PKK mRNA in HepaRG cells, 5,000 nM (Example 2)
Assay type: cell-based
Settings: HepaRG cells, 5,000 nM antisense oligonucleotide; 5-10-5 gapmers; Table 16
Method in brief: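 Percent inhibition of PKK mRNA is relative to untreated control, with qRT-PCR (probe set RTS3454) values adjusted to total RNA by RIBOGREEN. Oligonucleotides, fully phosphorothioate 2′-MOE gapmers, were delivered at 5,000 nM by electroporation into 20,000 HepaRG cells/well for about 24 h.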

Substance	% inhibition [%]
546917 (eA*eT*e[5mC]*eA*e[5mC]*dT*dG*dT*d[5mC]*d[5mC]*dT*dA*dT*dA*dA*e[5mC]*eT*eA*eT*eT; antisense) [compound 546917]	63

Same assay, conditions: HepaRG cells, 5,000 nM antisense oligonucleotide; 5-10-5 gapmers; Table 17

Substance	% inhibition [%]
547778 (antisense eT*e[5mC]*eA*e[5mC]*e[5mC]*dT*dG*dT*dG*dA*dG*dT*dA*dA*d[5mC]*e[5mC]*eA*eA*eT*eA) [compound 547778]	53
547726 (eG*e[5mC]*eA*eG*eG*dA*dT*dT*dG*dG*dT*dG*dG*dT*dG*eG*eA*eA*eT*eT; antisense) [compound 547726]	0
547063 (e[5mC]*eG*eT*e[5mC]*eA*dT*dG*d[5mC]*dT*dT*dA*d[5mC]*d[5mC]*dT*dT*eT*e[5mC]*eT*e[5mC]*e[5mC]; antisense) [compound 547063]	23
546599 (eA*eA*eG*eA*eG*dT*dA*dA*dG*d[5mC]*d[5mC]*dT*dT*d[5mC]*dA*e[5mC]*eA*eG*eG*eG; antisense) [compound 546599]	82

Same assay, conditions: HepaRG cells, electroporation with 5,000 nM antisense oligonucleotide, approximately 24 hours, PKK mRNA by RT-PCR (RTS3454), relative to untreated control cells; Table 5 experiment

Substance	% inhibition [%]
546149 (e[5mC]*e[5mC]*e[5mC]*e[5mC]*eA*d[5mC]*d[5mC]*dT*d[5mC]*dT*dG*dA*dA*dG*dA*eA*eG*eG*e[5mC]*eG; antisense) [compound 546149]	83
546166 (eT*eG*eT*e[5mC]*eA*dT*dT*dG*dA*dT*dT*dG*dA*dA*d[5mC]*eT*eT*eG*e[5mC]*eT; antisense) [compound 546166]	70
547270 (eA*eA*eA*eA*eT*dG*dA*dA*d[5mC]*dG*dG*dT*d[5mC]*dT*dT*e[5mC]*eA*eA*eG*e[5mC]; antisense) [compound 547270]	68
547300 (antisense eG*eA*eA*e[5mC]*eT*dT*dG*d[5mC]*dT*dG*dG*dA*dA*dG*dA*eA*eA*eA*e[5mC]*eT) [compound 547300]	37

Same assay, conditions: HepaRG cells, electroporation with 5,000 nM antisense oligonucleotide, approximately 24 hours, PKK mRNA by RT-PCR (RTS3454), relative to untreated control cells; Table 6 experiment

Substance	% inhibition [%]
547317 (antisense e[5mC]*eA*eG*eA*eA*dA*d[5mC]*dT*dG*d[5mC]*dA*d[5mC]*d[5mC]*dT*dG*eT*eT*e[5mC]*eG*eA) [compound 547317]	75
547342 (antisense eA*eT*eT*eA*eA*dA*dA*dT*dT*dG*dA*d[5mC]*dT*d[5mC]*d[5mC]*eT*e[5mC]*eT*e[5mC]*eA) [compound 547342]	66
546181 (antisense eT*eG*eA*e[5mC]*e[5mC]*dA*d[5mC]*dA*dT*dT*dG*d[5mC]*dT*dT*d[5mC]*eA*eA*eG*eG*eA) [compound 546181]	75

Same assay, conditions: HepaRG cells, electroporation, 5,000 nM antisense oligonucleotide, approx. 24 hours, primer probe set RTS3454, relative to untreated control cells; Table 11

Substance	% inhibition [%]
547526 (antisense eG*e[5mC]*eG*eA*e[5mC]*d[5mC]*dT*d[5mC]*dG*d[5mC]*dA*dT*dT*dG*dT*e[5mC]*eA*eG*e[5mC]*e[5mC]) [compound 547526]	59
546379 (antisense e[5mC]*eT*e[5mC]*e[5mC]*eA*dT*dG*d[5mC]*dT*dT*dT*dG*d[5mC]*dA*dG*eA*eT*eG*eA*eG) [compound 546379]	69

Same assay, conditions: HepaRG cells, electroporation, 5,000 nM antisense oligonucleotide, approx. 24 hours, primer probe set RTS3454, relative to untreated control cells; Table 12

Substance	% inhibition [%]
546426 (eT*e[5mC]*eT*e[5mC]*eT*dG*dG*dT*d[5mC]*dA*dA*dT*d[5mC]*dT*dG*eA*e[5mC]*eT*eA*eG; antisense) [compound 546426]	49
546511 (eG*eT*eG*eA*eT*dG*dA*dA*dA*dG*dT*dA*d[5mC]*dA*dG*e[5mC]*eA*eG*e[5mC]*eA; antisense) [compound 546511]	50
546700 (eT*eG*eG*eT*eT*d[5mC]*d[5mC]*d[5mC]*dT*dA*dG*d[5mC]*dG*dG*dT*e[5mC]*e[5mC]*eA*eG*eA; antisense) [compound 546700]	78
546447 (eG*eT*e[5mC]*eA*e[5mC]*d[5mC]*dA*dT*dA*dG*dA*d[5mC]*d[5mC]*d[5mC]*dA*eG*eA*eA*eT*e[5mC]; antisense) [compound 546447]	68

Same assay, conditions: Table 7; HepaRG cells, electroporation with 5,000 nM antisense oligonucleotide, approx. 24 hours; PKK mRNA by RT-PCR (RTS3454), relative to untreated control cells

Substance	% inhibition [%]
547400 (eT*eG*eG*e[5mC]*eA*dG*dG*dG*dT*dT*d[5mC]*dA*dG*dG*dT*eA*eA*eA*eG*eT; antisense) [compound 547400]	0
547402 (eT*eT*eT*eA*eG*dA*dA*dT*dG*dG*d[5mC]*dA*dG*dG*dG*eT*eT*e[5mC]*eA*eG; antisense) [compound 547402]	59
547392 (eA*eA*eG*eG*e[5mC]*dT*dA*dT*dA*dT*d[5mC]*d[5mC]*dA*dG*dA*eT*eA*eT*eG*eG; antisense) [compound 547392]	81
546237 (e[5mC]*eA*eG*eG*eT*dT*dA*dA*dA*dA*dG*dG*d[5mC]*dT*dA*eT*eA*eT*e[5mC]*e[5mC]; antisense) [compound 546237]	64
546240 (eG*eT*eA*eA*eA*dG*dT*dT*d[5mC]*dT*dT*dT*dT*dG*d[5mC]*eA*eG*eG*eT*eT; antisense) [compound 546240]	23
547399 (eG*e[5mC]*eA*eG*eG*dG*dT*dT*d[5mC]*dA*dG*dG*dT*dA*dA*eA*eG*eT*eT*e[5mC]; antisense) [compound 547399]	10
546229 (antisense eA*e[5mC]*eA*eT*eT*dT*d[5mC]*dT*dT*dT*dG*dT*dG*dA*d[5mC]*eT*e[5mC]*eG*eA*eT) [compound 546229]	19

Same assay, conditions: Table 8; HepaRG cells, electroporation with 5,000 nM antisense oligonucleotide, approx. 24 hours; PKK mRNA by RT-PCR (RTS3454), relative to untreated control cells

Substance	% inhibition [%]
547438 (antisense eG*eG*eG*e[5mC]*e[5mC]*dA*d[5mC]*dT*d[5mC]*dT*d[5mC]*d[5mC]*d[5mC]*d[5mC]*dA*eA*eG*eA*eA*eG) [compound 547438]	82
547446 (antisense eT*eT*eG*eT*eG*dA*dG*dA*dA*dA*dG*dG*dT*dG*dT*eA*eT*e[5mC]*eT*eT) [compound 547446]	84
547433 (eG*eT*e[5mC]*e[5mC]*e[5mC]*d[5mC]*dA*dG*dT*dG*dT*dT*dA*d[5mC]*dA*e[5mC]*eA*eA*eT*e[5mC]; antisense) [compound 547433]	63
547444 (antisense e[5mC]*eT*eA*eT*eA*dG*dA*dT*dG*d[5mC]*dG*d[5mC]*d[5mC]*dA*dA*eA*e[5mC]*eA*eT*e[5mC]) [compound 547444]	71
547420 (e[5mC]*e[5mC]*eA*eT*eA*dG*dA*dT*dA*dA*dT*d[5mC]*dT*dT*dA*eA*eG*eA*eA*eA; antisense) [compound 547420]	8
546263 (eG*eG*eA*eG*eT*dA*dA*dA*dG*dA*dA*dT*dA*dA*dG*eT*eG*eA*eA*eA; antisense) [compound 546263]	0

Same assay, conditions: Table 9 experiment; HepaRG cells, 20,000 cells per well, electroporation with 5,000 nM antisense oligonucleotide, approx. 24 hours; PKK mRNA by RT-PCR (RTS3454), relative to untreated control cells

Substance	% inhibition [%]
546331 (antisense eT*eT*e[5mC]*eA*e[5mC]*d[5mC]*dT*dT*dT*d[5mC]*dT*d[5mC]*d[5mC]*dT*dT*e[5mC]*eG*eA*eG*eA) [compound 546331]	59
546336 (antisense eT*e[5mC]*eA*eT*eT*dT*dG*dT*dT*dA*d[5mC]*d[5mC]*dA*dA*dA*eG*eG*eA*eA*eT) [compound 546336]	66
547473 (antisense eT*eT*eT*eG*eG*dA*dT*dT*dT*d[5mC]*dA*d[5mC]*d[5mC]*dT*dT*eT*e[5mC]*eT*e[5mC]*e[5mC]) [compound 547473]	5

Same assay, conditions: Table 10 experiment; HepaRG cells, 20,000 cells per well, electroporation with 5,000 nM antisense oligonucleotide, approx. 24 hours; PKK mRNA by RT-PCR (RTS3454), relative to untreated control cells

Substance	% inhibition [%]
546331 (antisense eT*eT*e[5mC]*eA*e[5mC]*d[5mC]*dT*dT*dT*d[5mC]*dT*d[5mC]*d[5mC]*dT*dT*e[5mC]*eG*eA*eG*eA) [compound 546331]	44
546336 (antisense eT*e[5mC]*eA*eT*eT*dT*dG*dT*dT*dA*d[5mC]*d[5mC]*dA*dA*dA*eG*eG*eA*eA*eT) [compound 546336]	73
547473 (antisense eT*eT*eT*eG*eG*dA*dT*dT*dT*d[5mC]*dA*d[5mC]*d[5mC]*dT*dT*eT*e[5mC]*eT*e[5mC]*e[5mC]) [compound 547473]	26

Same assay, conditions: Table 13; human PKK mRNA in HepaRG cells; 5-10-5 gapmers

Substance	% inhibition [%]
546844 (eG*eT*e[5mC]*e[5mC]*eT*dA*dT*dA*dT*d[5mC]*dA*d[5mC]*dT*dG*dT*e[5mC]*e[5mC]*eT*eA*eT; antisense) [compound 546844]	75
546789 (eG*e[5mC]*eT*eT*e[5mC]*dT*d[5mC]*dT*dA*dT*d[5mC]*dT*d[5mC]*d[5mC]*d[5mC]*eA*eG*eT*eG*eT; antisense) [compound 546789]	79
547565 (e[5mC]*eT*eT*eA*eT*d[5mC]*dA*dG*dT*d[5mC]*d[5mC]*d[5mC]*dA*dG*dT*e[5mC]*eA*eT*eG*eT; antisense) [compound 547565]	63

Same assay, conditions: human PKK mRNA in HepaRG cells; 5-10-5 gapmers; Table 14

Substance	% inhibition [%]
546880 (eG*eT*eT*eT*e[5mC]*d[5mC]*dT*dA*dT*dA*dA*d[5mC]*dA*dG*dT*eA*eT*e[5mC]*eA*e[5mC]; antisense) [compound 546880]	41

Same assay, conditions: human PKK mRNA, HepaRG cells, 5,000 nM antisense oligonucleotide, Table 18

Substance	% inhibition [%]
548767 (antisense eT*eA*eT*e[5mC]*dA*d[5mC]*dT*dG*dT*d[5mC]*d[5mC]*dT*dA*eT*eA*eT*e[5mC]) [compound 548767]	59

Same assay, conditions: human PKK mRNA, HepaRG cells; 5-10-5 motif oligonucleotides targeting SEQ ID NO: 1 and 10

Substance	% inhibition [%]
547642 (eT*e[5mC]*eA*e[5mC]*eT*dG*dT*d[5mC]*d[5mC]*dT*dA*dT*dA*dA*d[5mC]*eT*eA*eT*eA*eA; antisense) [compound 547642]	72
547628 (antisense e[5mC]*eT*e[5mC]*eT*eA*d[5mC]*d[5mC]*dT*dA*dT*dA*dA*d[5mC]*dT*d[5mC]*eT*eA*eA*e[5mC]*eA) [compound 547628]	34
547662 (eA*e[5mC]*e[5mC]*eT*eA*dT*dA*dA*d[5mC]*dT*dA*dT*dA*dA*d[5mC]*eA*eG*eT*eA*eT; antisense) [compound 547662]	0
